Measured values from patent US20260327655A1, “SMALL-MOLECULE REGULATED ALTERNATIVE SPLICING” (priority 2023, published 2026).

What was measured:
[1] = tested on: RS2-1 and variants; test: Luciferase induction assay, RS2-1 and variants in HEK-293T cells; format: cell-based, human; details: 300 nM (FIG. 13A), 18 hours, FIGS. 13A, 13B
Experimental: HEK-293T cells were cultured in DMEM+10% FBS, collected after trypsinization, and dispensed into 96-well plates (cell culture-treated). Each well of the plate was seeded with 1.0×10^5 cells in 100 μL culture medium. After a 1-hour incubation in the tissue culture incubator (5% CO2, 37° C.), plasmid DNA was complexed with a transfection reagent, such as Lipofectamine 3000, and added to respective wells on the plate. Each well received 100 ng of plasmid DNA complexed with 0.15 μL Lipofectamine 3000. The plasmids utilized in the experiment encoded a CMV promoter upstream of the RS2-1 construct and variants that controlled the expression of a Firefly Luciferase gene followed by a SV40 polyadenylation signal. After a 10-minute incubation at room temperature, either DMSO vehicle or 100B at specified doses was added to the wells of the plate. Plates were then incubated for 18 hours in a tissue culture incubator. Endpoint analysis was performed by adding 100 μL of a Luciferase substrate, such as Steady-Luc Firefly Luciferase substrate, to each well of the assay plate. The liquid contents of each was transferred to a 96-well plate, mixed again for 2 min on an orbital shaker, and incubated at room temperature for 5 min. Finally, the luminescent signal from each well was measured with a plate reader. […]

[2] = tested on: RS2-3 minigene (Firefly Luciferase), HEK-293T cells; test: Luciferase induction assay, RS2-3 with splice modulator compounds in HEK-293T cells; format: cell-based; details: Homo sapiens, 18 hours, n of 3, read-out: Mean fold-induction of luciferase (relative to vehicle control)
Experimental: (§1) HEK-293T cells were cultured in DMEM+10% FBS, collected after trypsinization, and then dispensed into 96-well plates (cell culture-treated). Each well of the plate was seeded with 1.0×10^5 cells in 100 μL culture medium. After a 1-hour incubation in a tissue culture incubator (5% CO2, 37 degrees C.), plasmid DNA was complexed with a transfection reagent, such as Lipofectamine 3000, and added to respective wells on the plate. Each well received an equivalent of 100 ng of plasmid DNA complexed with 0.15 μL Lipofectamine. Triplicate wells were used for each condition tested in the experiment. The plasmid utilized in the experiment encoded a CMV promoter upstream of the RS2-3 variant that controlled the expression of a Firefly Luciferase gene followed by a SV40 polyadenylation signal. After a 10-minute incubation at room temperature, either DMSO vehicle or specified compound at specified dose was added to the wells of the plate. Plates were then incubated for 18 hours in a tissue culture incubator. Endpoint analysis was performed by adding 100 uL Steady-Luc Firefly Luciferase substrate to each well of the assay plate. After mixing, the liquid contents of each was transferred to a 96-well plate, mixed again for 2 min on an orbital shaker, and incubated at room temperature for 5 min. Finally, the luminescent signal from each well was measured with a with PerkinElmer Envision plate reader. The results of this assay show RS2-3 responded to the majority of the splice modulator compounds used (FIG. 13C) Bars represent mean+/−standard deviation of 3 wells normalized to vehicle controls.

[3] = tested on: RS3-13 minigene (Firefly Luciferase), HEK-293T cells; test: Luciferase induction assay, RS3-13 with splice modulator compounds in HEK-293T cells; format: cell-based; details: Homo sapiens, 18 hours, n of 3, read-out: Mean fold-induction of luciferase (relative to vehicle control)
Experimental: as §1, with “RS3-13” for “the RS2-3 variant”, “RS3-13” for “RS2-3”, “14D)” for “13C)”

[4] = tested on: RS1-10 minigene (Firefly Luciferase), HEK-293T cells; test: Luciferase induction assay, RS1-10 with splice modulator compounds in HEK-293T cells; format: cell-based; details: Homo sapiens, 18 hours, n of 3, read-out: Mean fold-induction of luciferase (relative to vehicle control)
Experimental: as §1, with “of the RS I-10 variant that” for “of the RS2-3 variant that”, “assay show RS1-10 responded to” for “assay show RS2-3 responded to”, “compounds used in a dose responsive manner (FIG. 9C).” for “compounds used (FIG. 13C)”, “manner (FIG. 9C). Bars represent” for “used (FIG. 13C) Bars represent”

Compound: Cc1cn2cc(-c3nc(=O)n4cc(N5CCNCC5)ccc4n3)cc(F)c2n1.Cl [Compound 100B, 2-(8-fluoro-2-methylimidazo[1,2-a]pyridin-6-yl)-7-(piperazin-1-yl)-4H-pyrido[1,2-a][1,3,5]triazin-4-one hydrochloride]
- fold induction of luciferase compared to vehicle, constructs vs RS2-1 [1]: The majority of the constructs show higher fold induction of luciferase
- fold induction at 0.1 µM ([2]; RS2-3, 100 nM): 9.79
- fold induction at 1 µM ([2]; RS2-3, 1,000 nM): 26.4
- fold induction at 0.1 µM ([3]; RS3-13, 100 nM): 10
- fold induction at 1 µM ([3]; RS3-13, 1,000 nM): 42.4
- fold induction at 0.1 µM ([4]; RS1-10, 100 nM): 11.9
- fold induction at 1 µM ([4]; RS1-10, 1,000 nM): 57.1
